Holding throughout (experiment): Bliss excess, mean over the matrix (fraction); higher = more synergy
In assay [1] the test system is KYSE-180 (Esophageal Squamous Cell Carcinoma). The method, boiled down: (§1)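 Cell lines in DMEM/F12 or RPMI with 10% FBS were plated in 1536-well plates, held 24 hours at 37°C, 5% CO2, then given two-drug dose matrices for 72 hours (DMSO typically 0.2%). Viability was read by CellTiter-Glo 2.0 luminescence and scaled as inhibition from 0 (vehicle wells) to 1 (blank wells). Combination Emax is the second-highest inhibition in the matrix; Bliss excess is observed combination effect minus expected EA + EB − EA·EB, EA and EB being single-agent effects.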

Assay [2] deals with TE-6 (Esophageal Squamous Cell Carcinoma). The method, boiled down: as §1
The subject of assay [3] is SW837 (Colorectal Carcinoma). In outline: as §1
The next assay has as its system TC-71 (Ewing's Sarcoma). The method, boiled down:
as §1

The test system of another assay is CHP-212 (Neuroblastoma). In outline:
as §1

The test system of assay [4] is NCI-H1792 (Lung Adenocarcinoma). In outline:
as §1

In assay [5] the test system is COLO-678 (Colorectal Carcinoma). The method, boiled down:
as §1

The subject of assay [6] is CAMA-1 (Breast Carcinoma). In outline: as §1
Assay [7] has as its system MKN28 (Gastric Carcinoma). The method, boiled down: as §1
Assay [8] deals with EVSA-T (Breast Carcinoma). The method, boiled down: as §1
The subject of assay [9] is TOV-112D (Ovarian Carcinoma). In outline: as §1
A further assay concerns WM-115 (Melanoma). The method, boiled down: as §1
For assay [10], the system named is DiFi (Colorectal Carcinoma). The method, boiled down: as §1
Assay [11] concerns MFM-223 (Breast Carcinoma). In outline:
as §1

The test system of assay [12] is NCI-H847 (Small Cell Lung Carcinoma). In outline:
as §1

Assay [13] concerns L-540 (Hodgkin's Lymphoma). The method, boiled down:
as §1

In the next assay the test system is U251 (Low Grade Glioma). The method, boiled down:
as §1

Assay [14] relates to KM12 (Colorectal Carcinoma). The method, boiled down: as §1
The next assay relates to MEL-JUSO (Melanoma). In outline:
as §1

For assay [15], the system named is HDQ-P1 (Breast Carcinoma). The method, boiled down: as §1

In the case of `CC(=O)Nc1cccc(-n2c(=O)n(C3CC3)c(=O)c3c(Nc4ccc(I)cc4F)n(C)c(=O)c(C)c32)c1` [Trametinib] + Cc1nc(-c2cn3c(n2)-c2ccc(-c4cnn(C(C)(C)C(N)=O)c4)cc2OCC3)n(C(C)C)n1 [Taselisib] (first compound max 1 µM, 7x7, partner max 10 µM), the Bliss excess in assay [1] amounted to 0.0886; in [2], 0.0911; in assay [3], 0.05; in the assay on TC-71 (Ewing's Sarcoma) it was 0.136; in the assay with CHP-212 (Neuroblastoma), 0.0363; in assay [4], 0.109. Also, the Bliss excess in assay [5] was -0.0114; in [6], -0.0565; in assay [7] it was 0.0966; in assay [8] it was -0.0335; in [9], 0.176; with WM-115 (Melanoma), 0.048. The Bliss excess in assay [10] is 0.107; in [11] it was -0.0174; in [12], 0.0603; in [13], 0.0227; in the assay with U251 (Low Grade Glioma) it was 0.132; in [14], 0.0284. For the same compound, the Bliss excess was 0.12 with MEL-JUSO (Melanoma) and 0.221 in assay [15].

For `CN(CCO)CC[C@H](CSc1ccccc1)Nc1ccc(S(=O)(=O)NC(=O)c2ccc(N3CCC([C@@H](O)c4ccccc4-c4ccc(Cl)cc4)CC3)cc2)cc1S(=O)(=O)C(F)(F)F` [AZD4320] + C[C@@H]1COCCN1C2=NC(=NC(=C2)C3(CC3)[S@](=N)(=O)C)C4=C5C=CNC5=NC=C4 [AZD6738] (first compound max 1 µM, 7x7, partner max 10 µM), the Bliss excess in assay [1] was -0.0042; in assay [2] it was -0.0927; in assay [3] it was -0.0618; in the assay with TC-71 (Ewing's Sarcoma), 0.075; with CHP-212 (Neuroblastoma), -0.0496; in assay [4] it was -0.0647. In addition, the Bliss excess in assay [5] was -0.0616; in [6], -0.0016; in assay [7] it was -0.0528; in [8], -0.0105; in assay [9] it was 0.0134; with WM-115 (Melanoma), -0.0413. Moreover, the Bliss excess in [10] is -0.0044; in assay [11], -0.0367; in [12] it was -0.0091; in assay [13], 0.0082; with U251 (Low Grade Glioma) it was -0.0272; in assay [14] it was -0.0272. Moreover, the Bliss excess in the assay with MEL-JUSO (Melanoma) is -0.0159; in assay [15] it was 0.0268.

As for `Cc1c2c(nn1C)CSCc1cc(n(C)n1)CSc1cc(c3ccccc3c1)OCCCc1c(C(=O)O)n(C)c3c-2c(Cl)ccc13` [AZD5991] + Cc1cc2ncnn2cc1Nc1ncc2c(n1)n(C1CCOCC1)c(=O)n2C [AZD7648] (first compound max 1 µM, 7x7, partner max 10 µM), the Bliss excess in [1] is -0.0126; in assay [2] it was -0.0874; in assay [3] it was -0.0454; in the assay with TC-71 (Ewing's Sarcoma), -0.0745; in the assay with CHP-212 (Neuroblastoma) it was 0.0203; in assay [4], -0.0248. Further, the Bliss excess in [5] was -0.0416; in assay [6] it was -0.0456; in [7], 0.0046; in [8] it was -0.0156; in assay [9] it was -0.0214; with WM-115 (Melanoma), -0.11. Also, the Bliss excess was -0.0448 in assay [10]; -0.0361 in assay [11]; 0.0083 in assay [12]; -0.0036 in assay [13]; -0.0054 in the assay with U251 (Low Grade Glioma); -0.0073 in assay [14]. Further, the Bliss excess in the assay with MEL-JUSO (Melanoma) is -0.0453; in [15], -0.0352.

Turning to `CC1(C)CCC(CN2CCN(c3ccc(C(=O)NS(=O)(=O)c4ccc(NCC5CCOCC5)c([N+](=O)[O-])c4)c(Oc4cnc5[nH]ccc5c4)c3)CC2)=C(c2ccc(Cl)cc2)C1` [Venetoclax] + CCN(CCO)CCCOc1ccc2c(Nc3cc(CC(=O)Nc4cccc(F)c4)[nH]n3)ncnc2c1 [AZD2811] (first compound max 1 µM, 7x7, partner max 1 µM), the Bliss excess in assay [1] was 0.0453; in assay [2], -0.0112; in assay [3], 0.0166; in the assay with TC-71 (Ewing's Sarcoma) it was 0.0227; in the assay with CHP-212 (Neuroblastoma), -0.0499; in assay [4] it was 0.0122. Moreover, the Bliss excess was -0.0312 in assay [5]; -0.0198 in assay [6]; -0.0257 in assay [7]; 0.0485 in assay [8]; -0.0053 in [9]; -0.0138 in the assay with WM-115 (Melanoma). The Bliss excess in [10] is -0.098; in assay [11], 0.0084; in assay [12] it was 0.112; in assay [13], 0.0086; in the assay with U251 (Low Grade Glioma), -0.0104; in [14] it was 0.0148. Besides, the Bliss excess in the assay with MEL-JUSO (Melanoma) was -0.0165; in [15], 0.0063.

Take `C=CCn1c(=O)c2cnc(Nc3ccc(N4CCN(C)CC4)cc3)nc2n1-c1cccc(C(C)(C)O)n1` [AZD1775] + O=C(c1cc(Cc2n[nH]c(=O)c3ccccc23)ccc1F)N1CCN(C(=O)C2CC2)CC1 [Olaparib] (first compound max 1 µM, partner max 10 µM): the Bliss excess in [1] is 0.0253; in assay [2], -0.0297; in assay [3], -0.0125; in the assay with TC-71 (Ewing's Sarcoma) it was -0.0626; with CHP-212 (Neuroblastoma), -0.0383; in [4] it was -0.0261. Moreover, the Bliss excess in assay [5] was -0.012; in assay [6] it was -0.0452; in assay [7], 0.0046; in [8] it was 0.0622; in assay [9], -0.0139; in the assay with WM-115 (Melanoma) it was -0.0169. Also, the Bliss excess is -0.0145 in assay [10]; -0.0421 in [11]; 0.0627 in assay [12]; -0.045 in [13]; -0.0154 in the assay with U251 (Low Grade Glioma); -0.0201 in [14]. Further, the Bliss excess with MEL-JUSO (Melanoma) was -0.0523; in assay [15], -0.0441.

Turning to `Cc1c2c(nn1C)CSCc1cc(n(C)n1)CSc1cc(c3ccccc3c1)OCCCc1c(C(=O)O)n(C)c3c-2c(Cl)ccc13` [AZD5991] + C[C@@H](Nc1cc(F)cc(F)c1)c1cc(C(=O)N(C)C)cc2c(=O)cc(N3CCOCC3)oc12 [AZD8186] (first compound max 1 µM, 7x7, partner max 3 µM), the Bliss excess in assay [1] was 0.0187; in assay [2], -0.0515; in assay [3] it was -0.0156; in the assay on TC-71 (Ewing's Sarcoma), 0.0276; with CHP-212 (Neuroblastoma) it was -0.0203; in assay [4], -0.0108. In addition, the Bliss excess is -0.0613 in assay [5]; 0.0868 in assay [6]; -0.0326 in [7]; 0.0412 in assay [8]; -0.0028 in assay [9]; 0.018 in the assay with WM-115 (Melanoma). Besides, the Bliss excess in assay [10] is 0.0406; in assay [11], -0.047; in assay [12] it was 0.0632; in assay [13], -0.0224; with U251 (Low Grade Glioma), -0.0334; in assay [14], 0.0121. In addition, the Bliss excess is 0.0086 with MEL-JUSO (Melanoma) and -0.0209 in [15].

As for `CC1(C)CCC(CN2CCN(c3ccc(C(=O)NS(=O)(=O)c4ccc(NCC5CCOCC5)c([N+](=O)[O-])c4)c(Oc4cnc5[nH]ccc5c4)c3)CC2)=C(c2ccc(Cl)cc2)C1` [Venetoclax] + C=CCn1c(=O)c2cnc(Nc3ccc(N4CCN(C)CC4)cc3)nc2n1-c1cccc(C(C)(C)O)n1 [AZD1775] (first compound max 1 µM, partner max 1 µM), the Bliss excess was 0.0264 in [1]; -0.0859 in [2]; 0.0009 in [3]; -0.0215 with TC-71 (Ewing's Sarcoma); -0.0497 with CHP-212 (Neuroblastoma); 0.0479 in assay [4]. For the same compound, the Bliss excess was -0.0371 in assay [5]; 0.0033 in assay [6]; -0.0029 in [7]; 0.0075 in assay [8]; -0.0375 in assay [9]; -0.0465 in the assay with WM-115 (Melanoma). The Bliss excess is -0.0222 in assay [10]; -0.0987 in [11]; -0.0022 in [12]; 0.069 in assay [13]; -0.0787 in the assay on U251 (Low Grade Glioma); -0.0538 in assay [14]. Moreover, the values for the Bliss excess (with MEL-JUSO (Melanoma); in assay [15]) were -0.0447 and -0.014, respectively.

The values are drawn from the supplement of paper PMC11061612.
